Experiments:
[1] = tested on: E. faecium; experiment: MIC against E. faecium; type: cell-based
Protocol: (§1) All examples were tested against several gram positive and gram negative bacteria. They all have a broader and more pronounced activity than the corresponding quinolone and oxazolidinone as well as a 1+1 combination of these two compounds.

[2] = tested on: E. faecalis; experiment: MIC against E. faecalis; type: cell-based
Protocol: as §1

[3] = tested on: S. pneumoniae; experiment: MIC against S. pneumoniae; type: cell-based
Protocol: as §1

[4] = tested on: S. aureus (MSSA); experiment: MIC against S. aureus (MSSA); type: cell-based
Protocol: as §1

[5] = tested on: S. aureus (MRSA); experiment: MIC against S. aureus (MRSA); type: cell-based
Protocol: as §1

melting point | Typical MIC range [1] | Typical MIC range [2] | Typical MIC range [3] | Typical MIC range [4] | Typical MIC range [5] | SMILES
315 to 320 °C (dec.) |  |  |  |  |  | CC(=O)NC[C@H]1CN(c2ccc(N3CCN(c4cc5c(cc4F)c(=O)c(C(=O)O)cn5C4CC4)CC3)c(F)c2)C(=O)O1 (stereo in doubt) [Example 1, 7-(4-{4-[5-(acetylamino-methyl)-2-oxo-oxazolidin-3-yl]-2-fluoro-phenyl}-piperazin-1-yl)-1-cyclopropyl-6-fluoro-4-oxo-1,4-dihydro-quinoline-3-carboxylic acid]
258 °C (dec.) |  |  |  |  |  | CC(=O)NC[C@H]1CN(c2ccc(N3CCN(c4c(F)cc5c(=O)c(C(=O)O)cn6c5c4OCC6C)CC3)c(F)c2)C(=O)O1 (stereo partly drawn) [Example 2, 9-(4-{4-[5-(acetylamino-methyl)-2-oxo-oxazolidin-3-yl]-2-fluoro-phenyl}-piperazin-1-yl)-8-fluoro-3-methyl-6-oxo-2,3-dihydro-6H-1-oxa-3a-aza-phenalene-5-carboxylic acid]
 | 0.25 to 32 µg/mL | 0.5 to 32 µg/mL | 1 to 4 µg/mL | 0.125 to 1 µg/mL | 0.5 to 32 µg/mL | O=C(O)c1cn(C2CC2)c2cc(N3CCNCC3)c(F)cc2c1=O [ciprofloxacin]
 | 1 to 2 µg/mL | 0.5 to 2 µg/mL | 0.125 to 1 µg/mL | 1 to 2 µg/mL | 1 to 2 µg/mL | CC(=O)NC[C@H]1CN(c2ccc(N3CCOCC3)c(F)c2)C(=O)O1 [linezolid]
